AC50 and IC50 data for 21 molecules are collected here from patent US20250092065A1, “2-(INDAZOL-5-YL)-6-(PIPERIDIN-4-YL)-1,7-NAPHTHYRIDINE DERIVATIVES AND RELATED COMPOUNDS AS MODULATORS FOR SPLICING NUCLEIC ACIDS AND FOR THE TREATMENT OF PROLIFERATIVE DISEASES” (REMIX THERAPEUTICS INC., priority 2022, published 2025).

The subject of one test is MYB mRNA. Put plainly: RT-qPCR splicing assay, MYB mRNA canonical (CJ) and alternative (AJ) junction. The test is classed as cell-based, human. The conditions noted are these: Homo sapiens. The method, boiled down:
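Canonical and alternative-exon junction isoforms were quantified by RT-qPCR in cell lysates, with ΔCt against a housekeeper (GAPDH/GUSB/PPIA), then ΔΔCt vs DMSO, converted to 2^(−ΔΔCt) and percent response. K562 or A673 cells were exposed for 24 h to 11 concentrations (3-fold, top final 10 uM).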
In general terms: In qPCR the cycle at which signal appears reflects the starting amount.

The subject of another test is MYB. Put plainly: HiBiT protein abundance assay, MYB (K562 HiBiT knock-in). Particulars: HiBiT knock-in K562 cells, 24 hours, top dose 10 μM. The test is classed as cell-based, human. The method, boiled down: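 K562 HiBiT knock-in, 24 h, 37 °C, top 10 μM final, 3-fold ×10, DMSO ≤0.25%. Lytic HiBiT luminescence; PC = parental K562, NC = DMSO; 4PL IC50.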
(The HiBiT peptide binds its large partner to form an active luciferase.)

The mark [1] stands for this setting: RT-qPCR, MYB alternative junction mRNA increase, read-out: MYB AJ (increase in alternative junction mRNA, AC50).
Setting [2] is: RT-qPCR, MYB canonical junction mRNA decrease, read-out: MYB CJ (decrease in canonical junction mRNA, IC50).
The mark [3] stands for this setting: canonical junction qPCR panel, Table 4, read-out: MYB IC50 (decrease in CJ mRNA levels).
Where [4] appears, read: MYB alternative junction mRNA, RT-qPCR, read-out: MYB AJ (increase in AJ mRNA, AC50).
[5] abbreviates: MYB canonical junction mRNA, RT-qPCR, read-out: MYB CJ (decrease in CJ mRNA levels, IC50).

SMILES strings stand for the structures. Counter-ions that a name gives are not always drawn. Like-named read-outs stand apart in the source and are kept apart here.

The AC50 is the concentration at which the activity in the assay is half-maximal. The term IC50 denotes the concentration at which inhibition is half-maximal. Consider `C[C@H]1CN(c2cc(F)c3nc(-c4cc(F)c5nn(C)cc5c4)ccc3c2)C[C@H](C)N1` (single isomer, unassigned) [Compound 760], for which the AC50 in the test with MYB mRNA (setting [1]) was in the range of 100 to 1000 nM. The IC50 in the test with MYB mRNA (setting [2]), in the test with MYB mRNA (setting [3]) and with MYB was below 100 nM in each case.

With `C[C@H]1CN(c2cc(F)c3nc(-c4cc5cn(C)nc5cc4O)ccc3c2)C[C@H](C)N1` (single isomer, unassigned) [Compound 770], the AC50 in the test with MYB mRNA (setting [1]) is below 100 nM. Moreover, the IC50 in the test on MYB mRNA (setting [2]), with MYB mRNA (setting [3]) and in the test with MYB was below 100 nM in each case.

Turning to `Cc1cn2nc(-c3ccc4cc(N5C[C@H](C)N[C@@H](C)C5)cc(F)c4n3)cc(C)c2n1` (single isomer, unassigned) [Compound 799], in the test with MYB mRNA (setting [1]), the AC50 lay within 100 to 1000 nM. Besides, the results for the IC50 with MYB mRNA (setting [2]), in the test with MYB mRNA (setting [3]) and with MYB were below 100 nM, below 100 nM and 100 to 1000 nM, respectively.

Turning to `Cc1c(O)c(-c2ccc3cc(N4C[C@H](C)N[C@@H](C)C4)cc(F)c3n2)cc2cn(C)nc12` (single isomer, unassigned) [Compound 800, 2,2,2-trifluoroacetate], the AC50 in the test with MYB mRNA (setting [1]) is below 100 nM. Moreover, the IC50 with MYB mRNA (setting [2]), in the test with MYB mRNA (setting [3]) and in the test on MYB was below 100 nM throughout.

In the case of `Cc1nc(-c2cc3cn(C)nc3cc2O)nc2ccc(N3C[C@H](C)N[C@@H](C)C3)cc12` (single isomer, unassigned) [Compound 806], the AC50 in the test with MYB mRNA (setting [1]) lay in the range of 100 to 1000 nM. Moreover, the IC50 in the test on MYB mRNA (setting [2]), with MYB mRNA (setting [3]) and with MYB was below 100 nM throughout.

With `Cc1nc(-c2cc3cn(C)nc3c(C)c2O)nc2ccc(N3C[C@H](C)N[C@@H](C)C3)cc12` (single isomer, unassigned) [Compound 807], the AC50 in the test with MYB mRNA (setting [1]) was below 100 nM. The 50% inhibitory concentration (IC50) with MYB mRNA (setting [2]), in the test with MYB mRNA (setting [3]) and in the test with MYB was below 100 nM throughout.

As to `Cn1cc2cc(-c3cc4ccc(C5CCNCC5)nc4cn3)c(O)cc2n1` [Compound 104], the AC50 in the test with MYB mRNA (setting [4]) lay within 1000 to 10000 nM. Besides, the IC50 with MYB mRNA (setting [5]), in the test on MYB mRNA (setting [3]) and in the test on MYB was 1000 to 10000 nM each time.

Regarding `Cn1cc2cc(-c3ccc4nc(N5CC[C@H](NC6CCC6)C5)ccc4n3)c(O)cc2n1` [Compound 156], the concentration at half-maximal activity (AC50) in the test with MYB mRNA (setting [4]) is below 100 nM. Further, the IC50 in the test with MYB mRNA (setting [5]), in the test on MYB mRNA (setting [3]) and in the test on MYB was below 100 nM throughout.

With `CC(C)N[C@H]1CCN(c2ccc3nc(-c4cc5cn(C)nc5cc4O)ccc3n2)C1` [Compound 171], the AC50 in the test on MYB mRNA (setting [4]) is below 100 nM. For the same molecule, the IC50 with MYB mRNA (setting [5]), with MYB mRNA (setting [3]) and in the test on MYB was below 100 nM each time.

For the molecule `Cc1cn2nc(-c3ccc4nc(N5CCC(NC(C)(C)C)C5)ccc4n3)cc(C)c2n1` (stereo not drawn) [Compound 186], in the test on MYB mRNA (setting [4]), the AC50 is below 100 nM. The IC50 with MYB mRNA (setting [5]), in the test on MYB mRNA (setting [3]) and in the test on MYB was 100 to 1000 nM each time.

For `Cn1cc2cc(-c3ccc4nc(N5CC[C@H](NCC6CC6)C5)ccc4n3)c(O)cc2n1` [Compound 194], the AC50 in the test with MYB mRNA (setting [4]) is below 100 nM. Moreover, the IC50 in the test with MYB mRNA (setting [5]), in the test with MYB mRNA (setting [3]) and in the test with MYB was below 100 nM throughout.

Turning to `CN(C)C1CCN(c2ccc3nc(-c4cc5cn(C)nc5c(F)c4O)ncc3c2)CC1` [Compound 757, 5-{6-[4-(dimethylamino)piperidin-1-yl]quinazolin-2-yl}-7-fluoro-2-methylindazol-6-ol], the AC50 in the test with MYB mRNA (setting [1]) fell in the range of 100 to 1000 nM. The IC50 in the test on MYB mRNA (setting [2]), with MYB mRNA (setting [3]) and in the test on MYB was below 100 nM each time.

As for `C[C@@H]1CN(c2cc(F)c3nc(-c4cc(F)c5nn(C)cc5c4)ccc3c2)C[C@H](C)N1` [Compound 758, 6-[(3R,5S)-3,5-dimethylpiperazin-1-yl]-8-fluoro-2-(7-fluoro-2-methylindazol-5-yl)quinoline], the AC50 in the test on MYB mRNA (setting [1]) lay in the range of 100 to 1000 nM. The IC50 in the test on MYB mRNA (setting [2]), in the test on MYB mRNA (setting [3]) and in the test on MYB was 100 to 1000 nM throughout.

Take `C[C@@H]1CN(c2cc(F)c3nc(-c4cc5cn(C)nc5c(F)c4O)ccc3c2)C[C@H](C)N1` [Compound 763, 5-{6-[(3R,5S)-3,5-dimethylpiperazin-1-yl]-8-fluoroquinolin-2-yl}-7-fluoro-2-methylindazol-6-ol hydrochloride]: in the test on MYB mRNA (setting [1]), the AC50 was below 100 nM. Besides, the IC50 in the test on MYB mRNA (setting [2]), in the test on MYB mRNA (setting [3]) and with MYB was below 100 nM in each case.

On to `C[C@@H]1CN(c2cc(F)c3nc(-c4cc5cn(C)nc5cc4O)ccc3c2)C[C@H](C)N1` [Compound 768, 5-{6-[(3R,5S)-3,5-dimethylpiperazin-1-yl]-8-fluoroquinolin-2-yl}-2-methylindazol-6-ol hydrochloride], for which the half-maximal activity concentration (AC50) in the test with MYB mRNA (setting [1]) is 100 to 1000 nM. Also, the results for the IC50 in the test with MYB mRNA (setting [2]), in the test on MYB mRNA (setting [3]) and in the test on MYB were 100 to 1000 nM, 100 to 1000 nM and below 100 nM, respectively.

For `Cc1cn2cc(-c3ncc4cc(N5C[C@@H](C)N[C@@H](C)C5)ccc4n3)cc(F)c2n1` [Compound 773, 6-[(3R,5S)-3,5-dimethylpiperazin-1-yl]-2-{8-fluoro-2-methylimidazo[1,2-a]pyridin-6-yl}quinazoline], the AC50 in the test with MYB mRNA (setting [1]) was below 100 nM. Also, the IC50 in the test on MYB mRNA (setting [2]), in the test on MYB mRNA (setting [3]) and in the test on MYB was below 100 nM throughout.

As for `Cc1cn2cc(-c3nc(C(=O)NC4CCC4)c4cc(N5C[C@@H](C)N[C@@H](C)C5)ccc4n3)cc(F)c2n1` [Compound 779, N-cyclobutyl-6-[(3R,5S)-3,5-dimethylpiperazin-1-yl]-2-{8-fluoro-2-methylimidazo[1,2-a]pyridin-6-yl}quinazoline-4-carboxamide], the AC50 in the test with MYB mRNA (setting [1]) is below 100 nM. The IC50 in the test with MYB mRNA (setting [2]), with MYB mRNA (setting [3]) and in the test with MYB was below 100 nM throughout.

In the case of `Cc1c(O)c(-c2nc(C(N)=O)c3cc(N4C[C@H](C)N[C@@H](C)C4)ccc3n2)cc2cn(C)nc12` [Compound 796], the AC50 in the test on MYB mRNA (setting [1]) was below 100 nM. Moreover, the IC50 in the test with MYB mRNA (setting [2]), in the test on MYB mRNA (setting [3]) and in the test on MYB was below 100 nM throughout.

In the case of `C[C@H]1CN(c2ccc3nc(-c4cc5cn(C)nc5cc4O)nc(C(N)=O)c3c2)C[C@H](C)N1` [Compound 797], the AC50 with MYB mRNA (setting [1]) was below 100 nM. Moreover, the IC50 with MYB mRNA (setting [2]), with MYB mRNA (setting [3]) and in the test with MYB was below 100 nM throughout.

Take `Cc1cn2cc(-c3ncc4cc(N5C[C@H](C)N[C@@H](C)C5)ccc4n3)cc(F)c2n1` [Compound 803, 6-[(3S,5S)-3,5-dimethylpiperazin-1-yl]-2-{8-fluoro-2-methylimidazo[1,2-a]pyridin-6-yl}quinazoline]: in the test with MYB mRNA (setting [1]), the AC50 is below 100 nM. Moreover, the IC50 in the test on MYB mRNA (setting [2]), with MYB mRNA (setting [3]) and in the test on MYB was below 100 nM in each case.

Regarding `Cc1c(O)c(-c2ccc3cc(N4CCNC5(CC5)C4)cc(F)c3n2)cc2cn(C)nc12` [Compound 805, 5-(6-{4,7-diazaspiro[2.5]octan-7-yl}-8-fluoroquinolin-2-yl)-2,7-dimethylindazol-6-ol], the AC50 in the test with MYB mRNA (setting [1]) is below 100 nM. The IC50 in the test with MYB mRNA (setting [2]), in the test with MYB mRNA (setting [3]) and in the test on MYB was below 100 nM throughout.
